Key:
primary microglia (pMG) [1] = assay: CD 11b expression in hypoxia-stimulated primary microglia; assay type: cell-based, mouse; conditions: lonidamine 50 μM, DMSO as solvent
Description: For the isolation and culture of primary microglia, cells were isolated from newborn C57BL/6J mice. Briefly, cerebral cortices devoid of meninges and blood vessels were dissociated from P0-2 mice and digested by 0.125% trypsin at 37° C. for 15 minutes. The digestion was terminated by addition of DMEM containing 10% FBS and isolated single cells were seeded in culture dishes. After the mixed cultures became confluent, microglia were separated from other cell types by slight shaking and purification was identified by the microglial-specific marker CD 11b. b) CD 11b expression detected by Immunofluorescence: BV2 cells were seeded in a laser confocal-specific culture plate, and treated with hypoxia for 24 hours, fixed in 4% paraformaldehyde at room temperature for 20 minutes, and then washed three times with PBST for 5 minutes each time. After washing, CD 11b antibody diluted with DAKO antibody dilution was added and incubated overnight at 4° C. The next day, the samples were incubated with indicated fluorescently labeled secondary antibody at 37° C. for 1 hour.

BV 2 cells [2] = assay: Metabolite profiling: acetyl-coenzyme A accumulation under hypoxia; assay type: cell-based, mouse; conditions: lonidamine 50 μM, BrPA 10 μM; hypoxia 6 hours
Description: c) Metabolite profiling: BV2 cells were seeded in a 60 mm culture dish and cultured for 24 hours and then cultured in normoxic or hypoxic conditions for 6 hours. Metabolites were extracted using 1.5 mL of ice-cold 80% methanol. After incubation at −80° C. for 30 minutes, cells were scrapped and centrifuged at 14,000 g for 15 min at 4° C. The upper methanol/water phase were transferred into new tubes and incubated at −80° C. for another 30 minutes. The upper phases were centrifuged and dried under nitrogen gas and dried samples were stored at −80° C. prior to LC-MS analysis.

I11b promoter = assay: Chromatin immunoprecipitation (ChIP): acetylated histones at I11b promoter; assay type: cell-based, mouse; conditions: pretreatment 1 hour prior to 6 hours hypoxic exposure
Description: d) Chromatin immunoprecipitation (ChIP) assay: BV 2 cells were treated with dimethylsulfoxide or lonidamine for 1 hour prior to 6 hours hypoxic exposure. Then, cells were cross-linked with a 1% formaldehyde solution (Sigma, F8775) for 10 minutes at 37° C. Cell lysates were sonicated to generate 100-1000 bp DNA fragments. Samples were diluted, and 10% of the total amount was retained for input. The remaining portions of each sample were pre-cleared, and anti-H3 or anti-H4 antibodies were added; a normal rabbit IgG antibody was simultaneously used as the negative control. The next day, protein G agarose was added and samples were washed after 2 hours of incubation. Cross-links were then reversed by incubation at 65° C. for 4 hours in 0.2 M NaCl. DNAs were extracted from the input and IP samples, and qPCR assays were performed. The […] promoter primer sequences were as follows: [NT] (forward) (SEQ ID NO. 19) and [NT] (reverse) (SEQ ID NO. 20).

BV2 microglia cells [3] = assay: Hypoxia-induced microglial activation (morphological changes) in BV2 cells; assay type: cell-based, mouse
Description: a) Cell culture: BV2 cells were grown in DMEM containing 10% fetal bovine serum (FBS), placed in 5% CO2, cultured in a 37° C. constant temperature incubator (relative humidity was 95%), and observed under inverted microscope. Passage was performed approximately 2-3 days, and logarithmic growth phase cells were used for formal experiments. The cells in the hypoxic treatment group were placed in the Coy anoxic chamber with 1% 02, 5% CO2, and 94% N2; other conditions were the same as normal culture conditions.
(§1) b) RNA interference: Cells were seeded in a 35 mm culture dish for 24 hours. Short-interfering RNAs (siRNAs) were transfected with RNAiMAX Reagent. Scrambled RNA was used as a control. In total, 50 nM siRNAs were transfected into the cultures, and after 12 hours, the medium was replaced with fresh medium. Cells were then stimulated with hypoxia for 24 hours to detect the expression level of the indicated proteins.
a) Cell culture: BV2 cells were grown in DMEM containing 10% fetal bovine serum (FBS), placed in 5% CO2, cultured in a 37° C. constant temperature incubator (relative humidity was 95%), and observed under inverted microscope. Passage was performed approximately 2-3 days, and logarithmic growth phase cells were used for formal experiments.

BV 2 cells [4] = assay: qRT-PCR of proinflammatory cytokine mRNA under hypoxia; assay type: cell-based, mouse; conditions: lonidamine 50 μM, 3-BrPA 10 μM; for 116 expression (mRNA) / Tnfa expression (mRNA): hypoxia
Description: Next, quantitative reverse transcription polymerase chain reaction assays were performed to examine the mRNA levels of several proinflammatory cytokines in the presence or absence of HK2 inhibitors. […] Chromatin immunoprecipitation assays were carried out to examine endogenous binding of acetylated histones to I11b promoter. The binding of AcH3 and AcH4 to the I11b promoter increased during hypoxia, whereas it could be decreased by pretreatment with lonidamine (FIG. 7F).

BV2 microglia cells [5] = assay: CD 11b expression in hypoxia-stimulated BV2 cells; assay type: cell-based, mouse; conditions: lonidamine 50 μM, DMSO as solvent
Description: (§2) c) CD 11b expression detected by Immunofluorescence: BV2 cells were seeded in a laser confocal-specific culture plate, and treated with hypoxia for 24 hours, fixed in 4% paraformaldehyde at room temperature for 20 minutes, and then washed three times with PBST for 5 minutes each time. After washing, CD 11b antibody diluted with DAKO antibody dilution was added and incubated overnight at 4° C. The next day, the samples were incubated with indicated fluorescently labeled secondary antibody at 37° C. for 1 hour.
as §1
as §2, with “b)” for “c)”, “The next day, the samples were incubated with indicated fluorescently labeled secondary antibody at 37° C. for 1 hour.” left out

primary microglia (pMG) [6] = assay: Hypoxia-induced microglial activation (morphological changes) in primary microglia; assay type: cell-based, mouse; conditions: lonidamine 50 μM
Description: For the isolation and culture of primary microglia, cells were isolated from newborn C57BL/6J mice. Briefly, cerebral cortices devoid of meninges and blood vessels were dissociated from P0-2 mice and digested by 0.125% trypsin at 37° C. for 15 minutes. The digestion was terminated by addition of DMEM containing 10% FBS and isolated single cells were seeded in culture dishes. After the mixed cultures became confluent, microglia were separated from other cell types by slight shaking and purification was identified by the microglial-specific marker CD 11b.

[7] = system: middle cerebral artery occlusion (MCAo) rats; assay: Rat MCAo model, infarct volume by TTC staining; assay type: in vivo; conditions: 10 mg/kg two hours after operation; measured 24 hours after reperfusion
BV2 microglia cells [8] = assay: Proinflammatory cytokine protein expression under hypoxia; assay type: cell-based, mouse; conditions: 2-DG, BV 2 cells under hypoxia
Description: b) Protein extraction and proinflammatory cytokine protein expression assay: After incubated in 35 mm culture dishes and placed for 24 hours, the cells were subject to hypoxia treatment for indicated time. The total cellular protein was then extracted to detect protein expression of the proinflammatory cytokines TNF-α, IL-1β and IL-6.

| SMILES | CD 11b expression, pMG cells (immunofluorescence) (primary microglia (pMG) [1]) | hypoxia-induced accumulation of acetyl-coenzyme A (BV 2 cells [2]) | binding of AcH3 to the I11b promoter during hypoxia (I11b promoter) | binding of AcH4 to the I11b promoter during hypoxia (I11b promoter) | activated state of BV 2 cultures during hypoxia (BV2 microglia cells [3]; lonidamine 50 μM) | hypoxia-induced I11b expression at the mRNA level (BV 2 cells [4]) | 116 expression (mRNA) (BV 2 cells [4]) | Tnfa expression (mRNA) (BV 2 cells [4]) | CD 11b expression, BV 2 cells (immunofluorescence) (BV2 microglia cells [5]) | activated state of pMG cultures during hypoxia (primary microglia (pMG) [6]) | infarct size [7] | production of proinflammation cytokines (BV2 microglia cells [8]) | percentage of BV 2 cells with activated morphological changes (BV2 microglia cells [3]; 500 μM 2-DG, hypoxia 1% oxygen) |
| --- | --- | --- | --- | --- | --- | --- | --- | --- | --- | --- | --- | --- | --- |
| O=C(O)c1nn(Cc2ccc(Cl)cc2Cl)c2ccccc12 [Lonidamine] | reduction | remarkably impaired | decreased | decreased | markedly inhibited | dramatically inhibited | no effect | no effect | reduction | markedly inhibited | significantly reduced | – | – |
| O=C(O)C(=O)CBr [3-Br-pyruvate, 3-bromopyruvate] | – | remarkably impaired | – | – | – | dramatically inhibited | no effect | no effect | – | – | – | – | – |
| O=CC[C@@H](O)[C@H](O)[C@H](O)CO [2-deoxyglucose, 2-deoxy-D-glucose] | – | – | – | – | – | – | – | – | – | – | – | significantly impaired | significantly decreased |

From patent US12319750B2, “Hexokinase 2-specific inhibitors for use in acute central nervous system injury” (GUANGZHOU CELLPROTEK PHARMACEUTICAL CO., LTD, priority 2017, dated 2025)
